From PubChem BioAssay AID2423 (Broad Institute, 2010)
Inconclusive results are not listed. The source made the active and inactive calls. No rule for the calls is given here.

System: C. albicans CaCi-8 + fluconazole, Alamar Blue growth, 48 h
Test: resistant C. albicans growth inhibition with fluconazole, dose response, CaCi-8 strain, Alamar Blue fluorescence (AID 2423)

How did the EC50 turn out when O=C(Nc1ccccc1Cl)c1ccc([N+](=O)[O-])o1 was run?
Its EC50 is 0.693 µM.

COc1ccc(-c2cc(-c3c(O)c(OC)c4occc4c3OC)[nH]n2)cc1 was tested. Which EC50 did it give?
The EC50 was > 15 µM (inactive).

Which EC50 does the source give for Cc1ccc(NC(=O)c2ccccc2NS(=O)(=O)c2ccc(Cl)s2)cc1 here?
The EC50 was 1.16 µM.

With NC(N)=N/N=C/c1ccc(N(c2ccccc2)c2ccccc2)cc1 as the molecule, how does the EC50 read?
Its EC50 is > 15 µM (inactive).

With CC1(C)CC(N2CCCC2)=CC(=[N+]2CCCC2)C1 as the molecule, how does the EC50 read?
Its EC50 is 6.31 µM.

With CC(=O)c1sc(NC(=O)CCS(=O)(=O)c2ccccc2)nc1C as the molecule, how does the EC50 read?
The EC50 was 0.368 µM.

How did the EC50 turn out when O=C(NCc1cccnc1)c1ccc(-c2cccc(Cl)c2Cl)o1 was run?
Its EC50 is 1.76 µM.

Which EC50 does the source give for CC1CCN(C(=O)Cn2c3ccccc3c3nc4n(c(=O)c32)CCS4)CC1 here?
Its EC50 is > 16 µM (inactive).

With O=C1CCCN1CCCN=c1c([N+](=O)[O-])nn(-c2ccc(Cl)cc2)n1O as the molecule, how does the EC50 read?
The EC50 was 6.12 µM.

For CN1CCN(Cc2cc(COCc3ccccc3)c3cccnc3c2O)CC1, which EC50 is on record?
Its EC50 is 1.46 µM.

How did the EC50 turn out when COc1ccc(C)cc1Nc1n[n+](-c2ccccc2)c(-c2ccc(N(C)C)cc2)s1 was run?
The EC50 was 3.71 µM.

CCOC(=O)c1sc(Nc2nc3c(OC)cccc3s2)nc1C was tested. Which EC50 did it give?
The EC50 was 1.95 µM.

Which EC50 does the source give for C/C(=C\C(=O)OCCCCCCCCC(=O)O)C[C@@H]1OC[C@H](C[C@@H]2O[C@H]2[C@@H](C)[C@H](C)O)[C@@H](O)[C@H]1O here?
The EC50 was > 15 µM (inactive).

For O=C1c2ccccc2C(=O)c2c1cccc2N1CCCC1, which EC50 is on record?
The EC50 was > 16 µM (inactive).

For COc1ccc(O)c(/C=N/NC(=O)c2ccc(N3CCCC3=O)cc2)c1, which EC50 is on record?
The EC50 was > 16 µM (inactive).

For O=[N+]([O-])c1ccc(O)c2ncccc12, which EC50 is on record?
The EC50 was 0.681 µM.

With COc1cccc(/C=N/Nc2ccc([N+](=O)[O-])cn2)c1O as the molecule, how does the EC50 read?
Its EC50 is 1.5 µM.

For O=C(N/N=C/c1ccccn1)c1cc(-c2ccc(Cl)cc2)nc2ccccc12, which EC50 is on record?
Its EC50 is 4.33 µM.

Which EC50 does the source give for COc1cccc2c(SCC(=O)N/N=C/c3ccc(O)c(O)c3)cc(C)nc12 here?
Its EC50 is > 16 µM (inactive).

C=CC[C@@H]1C=C(C)C[C@H](C)C[C@H](OC)[C@H]2O[C@@](O)(C(=O)C(=O)N3CCCC[C@H]3C(=O)O[C@H](/C(C)=C/[C@@H]3CC[C@@H](O)[C@H](OC)C3)[C@H](C)[C@@H](O)CC1=O)[C@H](C)C[C@@H]2OC was tested. Which EC50 did it give?
The EC50 was < 0.12 µM.

With COc1ccc(CNCCNC(=O)c2ccco2)c(OC)c1OC as the molecule, how does the EC50 read?
The EC50 was > 16 µM (inactive).

COc1ccccc1/C=C1\SC(=S)N(NS(=O)(=O)c2ccccc2)C1=O was tested. Which EC50 did it give?
Its EC50 is 1.11 µM.

Cc1ccc2cc(C3C(C#N)=C(N)Oc4c3ccc3cccnc43)c(=O)[nH]c2c1 (stereo not given) was tested. Which EC50 did it give?
Its EC50 is 1.9 µM.

For CCOC(=O)c1[nH]c2ccc(F)cc2c1NC(=O)c1ccccc1C(=O)O, which EC50 is on record?
Its EC50 is > 15 µM (inactive).

With Oc1c(Br)cc(Br)cc1/C=N/Nc1ccc(Cl)nn1 as the molecule, how does the EC50 read?
The EC50 was 0.237 µM.

For O=C(CC(=O)c1cccc([N+](=O)[O-])c1)Nc1ccccc1Cl, which EC50 is on record?
The EC50 was 0.954 µM.

With OCc1ccc(O)c2ncccc12 as the molecule, how does the EC50 read?
The EC50 was 12.4 µM.

Which EC50 does the source give for CS/C(=N\S(=O)(=O)c1cccs1)Nc1ccc(Cl)cc1 here?
Its EC50 is 1.2 µM.

O=C(N/N=C/c1ccc(O)c(O)c1O)/C(=C/c1ccc([N+](=O)[O-])cc1)NC(=O)c1ccccc1 was tested. Which EC50 did it give?
The EC50 was 0.807 µM.

COc1ccc(C(=O)NC(=S)NNC(=O)c2cnccn2)cc1 was tested. Which EC50 did it give?
The EC50 was 3.54 µM.

For O=C(OCn1ncc(Cl)c(Cl)c1=O)c1ccc(F)cc1, which EC50 is on record?
The EC50 was > 16 µM (inactive).

Cc1ccc(C(=O)c2coc3cc([N+](=O)[O-])c(O)c([N+](=O)[O-])c23)cc1 was tested. Which EC50 did it give?
The EC50 was 1.23 µM.

Cc1cc(Cl)ccc1OCc1cn2cccnc2n1 was tested. Which EC50 did it give?
Its EC50 is 5.34 µM.

With COCc1cc(CN2CCN(C)CC2)c(O)c2ncccc12 as the molecule, how does the EC50 read?
The EC50 was 6.66 µM.

CC(C)COCc1ccc(O)c2ncccc12 was tested. Which EC50 did it give?
Its EC50 is 1.47 µM.

How did the EC50 turn out when S=c1[nH]nc(C2CCCCC2)n1/N=C/c1ccc(Br)s1 was run?
The EC50 was 1.94 µM.

How did the EC50 turn out when S=C(Nc1ccccc1)Nc1nc2ccccc2n1CCOc1ccccc1 was run?
The EC50 was 2 µM.

How did the EC50 turn out when Nc1nonc1-n1nnc(C(=O)N/N=C/c2cc(Cl)ccc2O)c1CN1CCCCCC1 was run?
Its EC50 is 1.82 µM.

For Cc1ccc(N=Cc2cc(Cc3ccccc3Cl)cc([N+](=O)[O-])c2O)c(O)c1, which EC50 is on record?
The EC50 was > 15 µM (inactive).

O=C(Oc1c(CN2CCOCC2)cc(Cl)c2cccnc12)c1cccs1 was tested. Which EC50 did it give?
The EC50 was 3.4 µM.

For O=C(Oc1ccc(Cl)c2cccnc12)c1cccc([N+](=O)[O-])c1, which EC50 is on record?
Its EC50 is 12.3 µM.

For CCOCCCNC(=O)c1ccc(N(C)S(=O)(=O)c2ccc(OC)cc2)cc1, which EC50 is on record?
The EC50 was > 16 µM (inactive).

Which EC50 does the source give for O=[N+]([O-])c1cc(Cl)c2cccnc2c1O here?
Its EC50 is 0.291 µM.

For CCNc1nc(NC(C)C)nc(NC(C)(C)C)n1, which EC50 is on record?
The EC50 was 1.4 µM.

CC[n+]1c(/C=C/N(C)c2ccccc2)n(-c2ccccc2)c2ccc(-c3nc4ccccc4s3)cc21 was tested. Which EC50 did it give?
Its EC50 is 1.2 µM.

With CCOc1ccc2c(c1)OC(c1ccc(C)cc1)(C(F)(F)F)NC2=O (stereo not given) as the molecule, how does the EC50 read?
The EC50 was > 16 µM (inactive).

For CCCCC(=O)NC(c1ccc(Cl)cc1Cl)c1ccc2cccnc2c1O (stereo not given), which EC50 is on record?
Its EC50 is 0.407 µM.

Which EC50 does the source give for COc1ccc(-c2nn(-c3ccccc3)cc2/C=N/NC(=S)NC(C)C)cc1OC here?
Its EC50 is 1.89 µM.

How did the EC50 turn out when O=C(N/N=C/c1c(O)n(CCC2=CCCCC2)c(=S)[nH]c1=O)c1ccccc1 was run?
The EC50 was 10.7 µM.

For CSc1nc(Cl)c(C#N)c(-c2ccc(C)cc2)n1, which EC50 is on record?
The EC50 was 2.84 µM.

Which EC50 does the source give for Cc1ccc(NC(=O)c2noc(C(C)C)c2[N+](=O)[O-])cc1 here?
Its EC50 is 3.2 µM.

How did the EC50 turn out when O=S(=O)(Nc1cccc2cccnc12)c1ccc(S(=O)(=O)N2CCCC2)cc1 was run?
Its EC50 is 5.62 µM.

How did the EC50 turn out when Cc1cc(NCCCn2ccnc2)n2ncc(-c3ccc(Cl)cc3)c2n1 was run?
Its EC50 is 1.31 µM.

With Cc1ccc(C)c(NC(=S)NNC(=O)c2csc(C)c2)c1 as the molecule, how does the EC50 read?
The EC50 was 0.704 µM.

Which EC50 does the source give for O=C1C2CCCN2C(c2ccccc2)N1c1ccccn1 (stereo not given) here?
Its EC50 is > 16 µM (inactive).
